In brackets after ≈: the same amount, converted by molar mass. Activity calls are given as the source filed them. The calls are words filed in the database; no cut-off is given here.
Columns and labels:
[1] = tested on: Rattus norvegicus; experiment: Induction of mesenteric bleeding time in iv dosed Sprague-Dawley rat measured over 10 mins; type: organism-based; conditions: in vivo
[2] = tested on: Rattus norvegicus; experiment: Induction of mesenteric bleeding time in Sprague-Dawley rat at 0.6 mg/kg and 2.25 mg/kg/hr, iv measured over 10 mins relative to vehicle-treated control; type: organism-based; conditions: in vivo
[3] = tested on: Rattus norvegicus; experiment: Induction of mesenteric bleeding time in Sprague-Dawley rat at 0.2 mg/kg and 0.75 mg/kg/hr, iv measured over 10 mins relative to vehicle-treated control; type: organism-based; conditions: in vivo
[4] = tested on: Rattus norvegicus; experiment: Antithrombotic activity in iv dosed FeCl2-induced Sprague-Dawley rat carotid artery thrombosis model assessed as increase in integrated blood flow measured over 60 mins; type: functional, organism-based
[5] = tested on: Rattus norvegicus; experiment: Antithrombotic activity in iv dosed FeCl2-induced Sprague-Dawley rat carotid artery thrombosis model assessed as inhibition of arterial thrombus formation after 60 mins; type: functional, organism-based
[6] = tested on: Rattus norvegicus; experiment: Antithrombotic activity in iv dosed FeCl2-induced Sprague-Dawley rat vena cava thrombosis model assessed as reduction of thrombus weight after 60 mins; type: functional, organism-based
[7] = tested on: Rattus norvegicus; experiment: Antithrombotic activity in FeCl2-induced Sprague-Dawley rat vena cava thrombosis model assessed as reduction of thrombus weight at 0.6 mg/kg and 2.25 mg/kg/hr, iv after 60 mins relative to vehicle-treated control; type: functional; design: scale not given: the % may be the effect or the level left
[8] = tested on: Rattus norvegicus; experiment: Antithrombotic activity in FeCl2-induced Sprague-Dawley rat vena cava thrombosis model assessed as reduction of thrombus weight at 0.2 mg/kg and 0.75 mg/kg/hr, iv after 60 mins relative to vehicle-treated control; type: functional; design: scale not given: the % may be the effect or the level left
[9] = tested on: Rattus norvegicus; experiment: Ex vivo antiplatelet activity in Sprague-Dawley rat assessed as inhibition of […] uM ADP-induced platelet aggregation at 10 mg/kg, po after 60 mins relative to vehicle-treated control; type: functional; conditions: 1 h
[10] = tested on: Rattus norvegicus; experiment: Ex vivo antiplatelet activity in Sprague-Dawley rat assessed as inhibition of […] uM ADP-induced platelet aggregation at 3 mg/kg, po after 60 mins relative to vehicle-treated control; type: functional; conditions: 1 h
[11] = tested on: Rattus norvegicus; experiment: Ex vivo antiplatelet activity in Sprague-Dawley rat assessed as inhibition of […] uM ADP-induced platelet aggregation at 0.2 mg/kg and 0.75 mg/kg/hr, iv after 60 mins relative to vehicle-treated control; type: functional
[12] = tested on: Rattus norvegicus; experiment: Ex vivo antiplatelet activity in Sprague-Dawley rat assessed as inhibition of […] uM ADP-induced platelet aggregation at 0.6 mg/kg and 2.25 mg/kg/hr, iv after 60 mins relative to vehicle-treated control; type: functional
[13] = tested on: Rattus norvegicus; experiment: Antithrombotic activity in FeCl2-induced Sprague-Dawley rat carotid artery thrombosis model assessed as integrated blood flow at 10 mg/kg, po after 60 mins relative to vehicle-treated control; type: functional
[14] = tested on: Rattus norvegicus; experiment: Antithrombotic activity in FeCl2-induced Sprague-Dawley rat carotid artery thrombosis model assessed as integrated blood flow at 0.6 mg/kg and 2.25 mg/kg/hr, iv after 60 mins relative to vehicle-treated control; type: functional
[15] = tested on: Rattus norvegicus; experiment: Antithrombotic activity in FeCl2-induced Sprague-Dawley rat carotid artery thrombosis model assessed as prevention of vascular occlusion at 10 mg/kg, po after 60 mins; type: functional, organism-based; design: dose 10 mg/kg
[16] = tested on: Rattus norvegicus; experiment: Antithrombotic activity in FeCl2-induced Sprague-Dawley rat carotid artery thrombosis model assessed as prevention of vascular occlusion at 0.6 mg/kg and 2.25 mg/kg/hr, iv after 60 mins; type: functional, organism-based
[17] = tested on: Rattus norvegicus; experiment: Antithrombotic activity in FeCl2-induced Sprague-Dawley rat carotid artery thrombosis model assessed as reduction of thrombus weight at 3 mg/kg, po after 60 mins relative to vehicle-treated control; type: functional; design: scale not given: the % may be the effect or the level left
[18] = tested on: Rattus norvegicus; experiment: Antithrombotic activity in FeCl2-induced Sprague-Dawley rat carotid artery thrombosis model assessed as reduction of thrombus weight at 0.2 mg/kg and 0.75 mg/kg/hr, iv after 60 mins relative to vehicle-treated control; type: functional; design: scale not given: the % may be the effect or the level left
[19] = tested on: Rattus norvegicus; experiment: Antithrombotic activity in FeCl2-induced Sprague-Dawley rat carotid artery thrombosis model assessed as reduction of thrombus weight at 10 mg/kg, po after 60 mins relative to vehicle-treated control; type: functional; design: scale not given: the % may be the effect or the level left
[20] = tested on: Rattus norvegicus; experiment: Antithrombotic activity in FeCl2-induced Sprague-Dawley rat carotid artery thrombosis model assessed as reduction of thrombus weight at 0.6 mg/kg and 2.25 mg/kg/hr, iv after 60 mins relative to vehicle-treated control; type: functional; design: scale not given: the % may be the effect or the level left
[21] = tested on: Rattus norvegicus; experiment: Antithrombotic activity in po dosed FeCl2-induced Sprague-Dawley rat carotid artery thrombosis model assessed as increase in integrated blood flow measured over 60 mins; type: functional, organism-based
[22] = tested on: Rattus norvegicus; experiment: Antithrombotic activity in po dosed FeCl2-induced Sprague-Dawley rat carotid artery thrombosis model assessed as inhibition of arterial thrombus formation after 60 mins; type: functional, organism-based
[23] = species: Rattus norvegicus; experiment: Inhibition of rat sodium channel site-2 at 10 uM relative to control
[24] = molecular target: L-type calcium channel (Rattus norvegicus, UniProt P22002+P27732+Q02485); experiment: Inhibition of rat L-type calcium channel at 10 uM relative to control
[25] = molecular target: Opioid receptors; mu/kappa/delta (Homo sapiens, UniProt P41145+P41143+P35372); experiment: Inhibition of opioid receptor (unknown origin)
[26] = tested on: HEK293; experiment: Selectivity ratio of IC50 for P2X1 receptor in HEK293 cells to IC50 for P2Y1 receptor in washed human platelets; type: cell-based
[27] = molecular target: T1, P2X purinoceptor 1 (Homo sapiens, UniProt P51575); experiment: Antagonist activity at P2X1 receptor in HEK293 cells assessed as alpha, beta-methylene ATP-induced calcium flux by FLIPR assay; type: cell-based
T1 sequence (P51575 whole entry): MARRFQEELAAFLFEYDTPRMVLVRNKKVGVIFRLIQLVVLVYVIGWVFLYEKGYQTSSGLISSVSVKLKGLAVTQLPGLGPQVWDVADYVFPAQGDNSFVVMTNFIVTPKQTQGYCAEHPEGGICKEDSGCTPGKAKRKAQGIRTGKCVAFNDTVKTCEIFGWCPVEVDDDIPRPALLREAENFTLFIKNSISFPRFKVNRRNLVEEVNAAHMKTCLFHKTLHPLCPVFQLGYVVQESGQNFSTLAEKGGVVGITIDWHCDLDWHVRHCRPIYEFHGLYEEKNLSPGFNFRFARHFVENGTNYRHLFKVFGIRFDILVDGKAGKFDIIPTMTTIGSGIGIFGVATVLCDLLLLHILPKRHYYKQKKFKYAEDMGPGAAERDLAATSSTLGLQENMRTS

[28] = molecular target: P2Y purinoceptor 2 (Homo sapiens, UniProt P41231); experiment: Antagonist activity at P2Y2 receptor in human HeLa cells assessed as intracellular calcium mobilization after 10 mins by Fluo-4 AM staining-based FLIPR assay; type: functional, cell-based
[29] = molecular target: P2Y purinoceptor 12 (Homo sapiens, UniProt Q9H244); experiment: Displacement of [33P]-2MeS-ADP from P2Y12 receptor (unknown origin) transfected in HEK293 cells after 1 hr by scintillation counting analysis; type: cell-based
[30] = Fraction unbound in dog; type: ADME, organism-based, Canis lupus familiaris; conditions: in vivo
[31] = Fraction unbound in rabbit; type: ADME, organism-based, Oryctolagus cuniculus; conditions: in vivo
[32] = Fraction unbound in mouse; type: ADME, organism-based; conditions: in vivo
[33] = Fraction unbound in rat; type: ADME, organism-based; conditions: in vivo
[34] = Oral bioavailability in dog at 0.2 mg/kg; type: ADME, organism-based, Canis lupus familiaris; conditions: in vivo
[35] = Fraction unbound in human; type: ADME, organism-based; conditions: in vivo
[36] = Half life in dog at 0.2 mg/kg, po; type: ADME, organism-based, Canis lupus familiaris; design: dose 0.2 mg/kg, route oral; conditions: in vivo
[37] = Clearance in dog at 0.2 mg/kg, po and 0.1 mg/kg, iv; type: ADME, organism-based, Canis lupus familiaris; conditions: in vivo
[38] = Volume of distribution at steady state in dog at 0.2 mg/kg, po and 0.1 mg/kg, iv; type: ADME, organism-based, Canis lupus familiaris; conditions: in vivo, read-out: Vdss
[39] = Total AUC in rat at 0.5 mg/kg, po; type: ADME, organism-based; design: time AUCmax, dose 0.5 mg/kg, route oral; conditions: in vivo
[40] = Oral bioavailability in rat at 0.5 mg/kg; type: ADME, organism-based; conditions: in vivo
[41] = Half life in rat at 0.5 mg/kg, iv administered as bolus dose and po; type: ADME, organism-based; design: dose 0.5 mg/kg, route oral; conditions: in vivo
[42] = Volume of distribution at steady state in rat at 0.5 mg/kg, iv administered as bolus dose; type: ADME, organism-based; design: dose 0.5 mg/kg, route intravenous; conditions: in vivo, read-out: Vdss
[43] = Clearance in rat at 0.5 mg/kg, iv administered as bolus dose; type: ADME, organism-based; design: dose 0.5 mg/kg, route intravenous; conditions: in vivo
[44] = Aqueous solubility of the crystalline form of compound in phosphate buffer at pH 6.5; type: physicochemical
[45] = Metabolic stability in rat liver microsomes assessed as compound remaining after 10 mins; type: ADME; conditions: read-out: Stability
[46] = Metabolic stability in human liver microsomes assessed as compound remaining after 10 mins; type: ADME; conditions: read-out: Stability
[47] = Partition coefficient, log P of the compound at pH 7 by reversed-phase HPLC method; type: physicochemical; conditions: octanol/water
[48] = molecular target: T2, P2Y purinoceptor 1 (Homo sapiens, UniProt P47900); experiment: Antagonist activity at P2Y1 receptor in washed human platelets assessed as 1 uM 2-methylthio-ADP-induced calcium flux by FLIPR assay; type: functional
[49] = molecular target: T2, P2Y purinoceptor 1; experiment: Displacement of [33P]-2MeS-ADP from human P2Y1 receptor expressed in HEK293 cells after 1 hr by scintillation counting analysis; type: cell-based

T2 sequence (P47900 whole entry): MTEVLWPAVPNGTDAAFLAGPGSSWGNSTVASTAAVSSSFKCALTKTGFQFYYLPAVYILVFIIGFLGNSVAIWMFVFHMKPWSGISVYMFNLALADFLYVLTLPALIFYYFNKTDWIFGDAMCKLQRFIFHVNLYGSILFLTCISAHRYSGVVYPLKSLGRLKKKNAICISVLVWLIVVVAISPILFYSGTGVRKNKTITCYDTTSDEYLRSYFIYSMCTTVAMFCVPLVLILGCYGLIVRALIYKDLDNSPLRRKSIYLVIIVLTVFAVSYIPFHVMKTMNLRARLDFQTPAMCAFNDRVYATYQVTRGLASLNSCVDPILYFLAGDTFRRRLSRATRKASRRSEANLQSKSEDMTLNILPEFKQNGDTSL
Sequence of P2Y purinoceptor 2 (P41231 whole entry): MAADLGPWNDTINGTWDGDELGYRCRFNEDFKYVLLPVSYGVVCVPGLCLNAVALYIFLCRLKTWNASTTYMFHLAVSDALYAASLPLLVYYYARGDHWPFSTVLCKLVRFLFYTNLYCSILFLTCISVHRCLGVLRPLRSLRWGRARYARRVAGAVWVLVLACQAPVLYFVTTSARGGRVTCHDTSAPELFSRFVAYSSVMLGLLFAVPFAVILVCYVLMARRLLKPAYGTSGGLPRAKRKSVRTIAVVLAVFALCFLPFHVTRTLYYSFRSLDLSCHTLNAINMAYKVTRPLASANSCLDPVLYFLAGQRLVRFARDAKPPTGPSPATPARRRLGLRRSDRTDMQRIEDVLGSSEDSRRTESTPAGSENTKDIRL
Sequence of P2Y purinoceptor 12 (Q9H244 whole entry): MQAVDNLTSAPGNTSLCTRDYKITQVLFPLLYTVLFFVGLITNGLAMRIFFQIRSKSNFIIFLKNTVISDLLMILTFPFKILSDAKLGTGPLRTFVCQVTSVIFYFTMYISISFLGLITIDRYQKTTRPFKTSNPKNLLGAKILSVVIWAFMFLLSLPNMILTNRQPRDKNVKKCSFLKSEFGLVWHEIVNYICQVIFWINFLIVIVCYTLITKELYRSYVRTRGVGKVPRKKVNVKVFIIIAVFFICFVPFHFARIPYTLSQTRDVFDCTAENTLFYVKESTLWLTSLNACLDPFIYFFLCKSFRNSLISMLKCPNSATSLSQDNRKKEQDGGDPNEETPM

With `CC(C)(C)CN1CCC2(CC1)CN(c1ccccc1NC(=O)Nc1ccc(OC(F)(F)F)cc1)c1ccccc12` the Activity [1] was “Dose-dependent effect”, the “fold change (FC)” value [2] was 2.3 and the “fold change (FC)” value [3] was 2.7. The Activity [4] was “Dose-dependent effect”, the inhibition [5] was “Dose-dependent effect” and the Activity [6] was “Dose-dependent effect”. It also gave an Activity [7] of -54%, an Activity [8] of -26% and an inhibition in vivo at 10 mg/kg [9] of -64%. The inhibition in vivo at 3 mg/kg [10] was -48%, the “inhibition (INH)” value [11] was -30% and the “inhibition (INH)” value [12] was -85%. The Activity [13] was over 95%, the Activity [14] was over 95% and the Activity [15] was “Active”. For the same compound, the Activity [16] was “Active”, the Activity [17] was -45% and the Activity [18] was -41%. For the same compound, the Activity [19] was 64%, the Activity [20] was 66% and the Activity [21] was “Dose-dependent effect”. For the same compound, the inhibition [22] was “Dose-dependent effect”, the inhibition [23] was 88% and the inhibition at 10 µM [24] was 78%. The IC50 [25] was 2.7 µM, the Ratio IC50 [26] was over 600 and the IC50 [27] was 1600 nM. It also gave an IC50 [28] of over 10 µM, an IC50 [29] of over 20 µM and a Fu [30] of 0.2%. The Fu [31] was 0.1%, the Fu [32] was 0.2% and the Fu [33] was under 0.1%. It also gave a bioavailability [34] of 55%, a Fu [35] of under 0.1% and a half-life [36] of 582 min. For the same compound, the clearance [37] was 5.3 mL/min/kg, the Vd [38] was 2.8 L/kg and the AUC [39] was 0.587 µM·h. For the same compound, the bioavailability [40] was 32%, the half-life [41] was 450 min and the Vd [42] was 2.8 L/kg. It also gave a clearance [43] of 9.1 mL/min/kg, a solubility [44] of 4 µg/mL (≈ 7.24 µM) and a remaining at 10 min [45] of 87%. The remaining at 10 min [46] was 89%, the logP [47] was over 6.2 and the IC50 [48] was 2.5 nM. For the same compound, the Ki [49] was 4.3 nM.
